{
  "source": "patent US8889377B2",
  "about": "“GPCR comprising an IC2 insertion” (ConfometRx, Inc., priority 2010, dated 2014)",
  "tested_on": "mGluR5 and Rock10 (mGluR5-T4 lysozyme fusion protein of FIG. 3)",
  "test": "3H-MPEP ligand binding in membranes of transfected HEK293 cells",
  "set-up": "species or system human",
  "settings": "HEK293 cell membranes; ^3H-MPEP radioligand; wild-type mGluR5 vs fusion protein Rock10 (FIG. 6)",
  "protocol": "HEK293 cells were cultured on plastic dishes at 37° C. with 5% CO2 in Dulbecco's modified Eagle's medium (Cellgro) with 5% fetal bovine serum. For an individual expression experiment, cells at confluency were split, and approximately 100,000 cells were used to seed glass cover slips in the same medium. After 2 d, cells are transfected with the addition of 1 μg of a given pCDNA3-receptor plasmid and 3 μl of Fugene 6 reagent (Roche). 48 h after transfection, cells were harvested and membranes prepared for ligand binding analysis. ^3H-MPEP (a negative allosteric modulator that binds to the transmembrane domains of mGluR5) was used to detect functional mGluR5 in HEK293 cell membranes (see FIG. 6).",
  "data": [
    {"smiles": "Cc1cccc(C#Cc2ccccc2)n1", "note": "[MPEP]", "values": [
      {"measurement": "affinity of MPEP for mGluR5 compared with Rock10", "result": "same affinity for mGluR5 as Rock10"}
    ]}
  ]
}
